Patent US4374147A, “13-Oxo-monic acid esters useful as antibacterial and antimycoplasmal agents” (Beecham Group Limited, priority 1980, dated 1983)
≈ marks a conversion by molar mass, not a printed value. Like-named read-outs stand apart in the source and are kept apart here.

Tests used:
E.coli NCTC 10418 [1] = experiment: MIC by serial dilution in nutrient agar (human bacteria, Table 1); type: cell-based; conditions: Escherichia coli, NCTC10418, 5% "chocolated" horse blood
Bacillus subtilis 6633 = experiment: as above; type: cell-based; conditions: 5% "chocolated" horse blood
[2] = system: Haemophilus influenzae Q1; experiment: as above; type: cell-based; conditions: Haemophilus influenzae Q1; nutrient agar, 5% "chocolated" horse blood; read-out: MIC
[3] = system: M.suipneumoniae J2206/183b; experiment: Anti-mycoplasmal MIC by serial dilution in Friis broth (Table 3); type: cell-based; conditions: Mesomycoplasma hyopneumoniae, read-out: in vitro MIC
Text: (§1) *Determined by serial dilution in Friis broth (Friis N.F. 1975. Nord. Vet
(§2) Med. 27, 337) in microtiter plates using a modification of the metabolite
(§3) inhibition test (TaylorRobinson D. 1967. Postgrad. Med. J., 43, suppl.

M.pneumoniae 427a = experiment: as above; type: cell-based; conditions: Mycoplasmoides pneumoniae, read-out: in vitro MIC
Text: as §1, §2, §3

M.dispar NCTC 10125 [4] = experiment: as above; type: cell-based; conditions: read-out: in vitro MIC
Text: as §1, §2, §3

P. mirabilis 889 = experiment: MIC by serial dilution in nutrient agar (human bacteria, Table 1); type: cell-based; conditions: Proteus mirabilis, 5% "chocolated" horse blood
E.coli ESS = experiment: as above; type: cell-based; conditions: Escherichia coli, 5% "chocolated" horse blood
[5] = system: Corynebacterium xerosis 9755; experiment: as above; type: cell-based; conditions: 5% "chocolated" horse blood
Staph.aureus Russell = experiment: as above; type: cell-based; conditions: Staphylococcus aureus
Strep.pyogenes B 2788 = experiment: as above; type: cell-based; conditions: Streptococcus pyogenes, B2788, 5% "chocolated" horse blood
Strep.faecalis I = experiment: as above; type: cell-based; conditions: Enterococcus faecalis, 5% "chocolated" horse blood
[6] = system: Pasteurella multocida 1633; experiment: as above; type: cell-based
Ps. aeruginosa 10662 = experiment: as above; type: cell-based; conditions: Pseudomonas aeruginosa, 5% "chocolated" horse blood
[7] = system: Neisseria flavesceus 8263; experiment: MIC by serial dilution in nutrient agar (human bacteria, Table 1, footnote a); type: cell-based
Text: | ^ a Neisseria flavesceus 8263

Strep.pyogenes A 64/848 = experiment: MIC by serial dilution in nutrient agar (human bacteria, Table 1); type: cell-based; conditions: Streptococcus pyogenes, A64/848, 5% "chocolated" horse blood
[8] = system: Haemophilus influenzae Wy21; experiment: as above; type: cell-based; conditions: 5% "chocolated" horse blood
Staph.aureus Oxford [9] = experiment: as above; type: cell-based; conditions: Staphylococcus aureus
K. aerogenes A = experiment: as above; type: cell-based; conditions: Klebsiella aerogenes, 5% "chocolated" horse blood
Strep.pyogenes C 2761 = experiment: as above; type: cell-based; conditions: Streptococcus pyogenes, C2761, 5% "chocolated" horse blood
Sarcina lutea 8340 = experiment: as above; type: cell-based; conditions: Micrococcus luteus, 5% "chocolated" horse blood
Staph. aureus W2827 = experiment: MIC by serial dilution in nutrient agar (human bacteria, Table 1, footnote b); type: cell-based; conditions: Staphylococcus aureus, Staph. aureus W2827 (footnote b, in line Staph.aureus 1517), 5% "chocolated" horse blood
[10] = system: Neisseria catarrhalis 1502; experiment: MIC by serial dilution in nutrient agar (human bacteria, Table 1); type: cell-based; conditions: 5% "chocolated" horse blood
Strep.pneumoniae CN33 = experiment: as above; type: cell-based; conditions: Streptococcus pneumoniae, 5% "chocolated" horse blood
E.coli E1 = experiment: MIC by agar dilution (veterinary bacteria, Table 2); type: cell-based; conditions: Escherichia coli, diagnostic sensitivity test agar, 24 hours, 37° C.
Description: (§4) The MIC values were determined by agar dilution using diagnostic sensitivity test agar (Oxoid) using a multipoint inoculator delivering 0.001 ml of an inoculum adjusted to give 10^7 -10^8 organisms per ml and read after 24 hours incubation at 37° C.

Strep.agalactiae SPA1 = experiment: as above; type: cell-based; conditions: Streptococcus agalactiae, diagnostic sensitivity test agar, 24 hours, 37° C.
Description: as §4

[11] = system: Staph.aureus B4 (pen resis); experiment: as above; type: cell-based; conditions: Staphylococcus aureus, diagnostic sensitivity test agar, 24 hours, 37° C.
Description: as §4

Bord.bronchiseptica BO9 = experiment: as above; type: cell-based; conditions: Bordetella bronchiseptica, diagnostic sensitivity test agar, 24 hours, 37° C.
Description: as §4

[12] = system: Strep.suis (group D) SPS11; experiment: as above; type: cell-based; conditions: Streptococcus suis, diagnostic sensitivity test agar, 24 hours, 37° C.
Description: as §4

Bord.bronchiseptica BO8 = experiment: as above; type: cell-based; conditions: Bordetella bronchiseptica, diagnostic sensitivity test agar, 24 hours, 37° C.
Description: as §4

S.dublin S7 = experiment: as above; type: cell-based; conditions: Salmonella enterica, diagnostic sensitivity test agar, 24 hours, 37° C.
Description: as §4

S.typhimurium S18 = experiment: as above; type: cell-based; conditions: Salmonella enterica, diagnostic sensitivity test agar, 24 hours, 37° C.
Description: as §4

Strep.uberis SPU1 = experiment: as above; type: cell-based; conditions: Streptococcus uberis, diagnostic sensitivity test agar, 24 hours, 37° C.
Description: as §4

Staph.aureus Oxford [13] = experiment: as above; type: cell-based; conditions: Staphylococcus aureus, diagnostic sensitivity test agar, 24 hours, 37° C.
Description: as §4

Strep.dysgalactiae SPD1 = experiment: as above; type: cell-based; conditions: Streptococcus dysgalactiae, diagnostic sensitivity test agar, 24 hours, 37° C.
Description: as §4

Past.haemolytica PA5 = experiment: as above; type: cell-based; conditions: Mannheimia haemolytica, diagnostic sensitivity test agar, 24 hours, 37° C.
Description: as §4

[14] = system: Corynebacterium pyogenes CY1; experiment: as above; type: cell-based; conditions: Trueperella pyogenes, diagnostic sensitivity test agar, 24 hours, 37° C.
Description: as §4

[15] = system: Erysipelothrix rhusiopathiae NCTC 8163; experiment: as above; type: cell-based; conditions: NCTC8163, diagnostic sensitivity test agar, 24 hours, 37° C.
Description: as §4

Past.multocida PA2 = experiment: as above; type: cell-based; conditions: Pasteurella multocida, diagnostic sensitivity test agar, 24 hours, 37° C.
Description: as §4

Past.multocida PA1 = experiment: as above; type: cell-based; conditions: Pasteurella multocida, diagnostic sensitivity test agar, 24 hours, 37° C.
Description: as §4

E.coli NCTC 10418 [16] = experiment: as above; type: cell-based; conditions: Escherichia coli, NCTC10418, diagnostic sensitivity test agar, 24 hours, 37° C.
Description: as §4

[17] = system: Staph.aureus 152 (pen sens); experiment: as above; type: cell-based; conditions: Staphylococcus aureus, diagnostic sensitivity test agar, 24 hours, 37° C.
Description: as §4

[18] = system: M.pneumoniae (Mac) ATCC 15492; experiment: Anti-mycoplasmal MIC in Friis broth solidified with agarose (Table 3); type: cell-based; conditions: Mycoplasmoides pneumoniae, ATCC15492, 144 h, 6 days, 37° C., read-out: in vitro MIC
Description: (§5) ^+ Determined in Friis broth solidified with 0.9% agarose. The
(§6) inoculum was 10^3 to 10^5 C.F.U. MIC's were recorded after 6 days

M.hyosynoviae ATCC 25591 = experiment: as above; type: cell-based; conditions: 144 h, 6 days, 37° C., read-out: in vitro MIC
Description: as §5, §6

[19] = system: M.suipneumoniae J2206/183b; experiment: as above; type: cell-based; conditions: Mesomycoplasma hyopneumoniae, 144 h, 6 days, 37° C., read-out: in vitro MIC
Description: as §5, §6

M.hyorhinis ATCC 23234 = experiment: as above; type: cell-based; conditions: Mesomycoplasma hyorhinis, ATCC23234, 144 h, 6 days, 37° C., read-out: in vitro MIC
Description: as §5, §6

M.suipneumoniae Str.11 = experiment: as above; type: cell-based; conditions: Mesomycoplasma hyopneumoniae, 144 h, 6 days, 37° C., read-out: in vitro MIC
Description: as §5, §6

M.dispar NCTC 10125 [20] = experiment: as above; type: cell-based; conditions: 144 h, 6 days, 37° C., read-out: in vitro MIC
Description: as §5, §6

M.bovis NCTC 10131 = experiment: as above; type: cell-based; conditions: NCTC10131, 144 h, read-out: in vitro MIC
Description: as §5, §6

mycoplasma organisms = conditions: disclosed in earlier patents; cited from earlier work
[21] = system: Gram-positive and Gram-negative organisms; conditions: disclosed in earlier patents; cited from earlier work

COC(=O)CCCCCCCCOC(=O)/C=C(\C)CC1OCC(CC2OC2C(C)C(C)=O)C(O)C1O (stereo not drawn) [Example 1, Methyl 13-Oxopseudomonate A]
MIC (E.coli NCTC 10418 [1]): > 200 µg/mL
MIC (Bacillus subtilis 6633): 0.5 µg/mL (≈ 0.975 µM)
MIC [2]: 0.5 µg/mL (≈ 0.975 µM)
MIC [3]: 62.5 µg/mL (≈ 122 µM)
MIC (M.pneumoniae 427a): 250 µg/mL (≈ 488 µM)
MIC (M.dispar NCTC 10125 [4]): 0.5 µg/mL (≈ 0.975 µM)
MIC (P. mirabilis 889): > 200 µg/mL
MIC (E.coli ESS): 2 µg/mL (≈ 3.9 µM)
MIC [5]: > 200 µg/mL
MIC (Staph.aureus Russell; Staph.aureus Russell, nutrient agar, 5% "chocolated" horse blood, read-out: MIC): 2 µg/mL (≈ 3.9 µM)
MIC (Strep.pyogenes B 2788): 10 µg/mL (≈ 19.5 µM)
MIC (Strep.faecalis I): > 200 µg/mL
MIC ([6]; Pasteurella multocida, 1633): 1 µg/mL (≈ 1.95 µM)
MIC (Ps. aeruginosa 10662): > 200 µg/mL
MIC [7]: 1 µg/mL (≈ 1.95 µM)
MIC (Strep.pyogenes A 64/848): 0.5 µg/mL (≈ 0.975 µM)
MIC [8]: 0.5 µg/mL (≈ 0.975 µM)
MIC (Staph.aureus Oxford [9]; Staph.aureus Oxford, nutrient agar, 5% "chocolated" horse blood, read-out: MIC): 0.5 µg/mL (≈ 0.975 µM)
MIC (K. aerogenes A): > 200 µg/mL
MIC (Strep.pyogenes C 2761): 2 µg/mL (≈ 3.9 µM)
MIC (Sarcina lutea 8340): > 200 µg/mL

CCOC(=O)C=C(C)CC1OCC(CC2OC2C(C)C(C)=O)C(O)C1O (stereo not drawn) [Example 5, Ethyl 4-(5-(2,3-epoxy-4-methylhexan-5-onyl)-3,4-dihydroxytetrahydropyran-2-yl)-3-methylbut-2-enoate]
MIC (Staph. aureus W2827): 5 µg/mL (≈ 13.5 µM)
MIC (E.coli NCTC 10418 [1]): > 100 µg/mL
MIC (Bacillus subtilis 6633): 10 µg/mL (≈ 27 µM)
MIC [2]: 1 µg/mL (≈ 2.7 µM)
MIC (P. mirabilis 889): 100 µg/mL (≈ 270 µM)
MIC (E.coli ESS): 10 µg/mL (≈ 27 µM)
MIC [10]: 2.5 µg/mL (≈ 6.75 µM)
MIC (Strep.pneumoniae CN33): 10 µg/mL (≈ 27 µM)
MIC (Staph.aureus Russell): 5 µg/mL (≈ 13.5 µM)
MIC (Strep.pyogenes B 2788): 50 µg/mL (≈ 135 µM)
MIC (E.coli E1): > 80 µg/mL
MIC (Strep.agalactiae SPA1): 20 µg/mL (≈ 54 µM)
MIC [11]: 0.625 µg/mL (≈ 1.69 µM)
MIC (Bord.bronchiseptica BO9): 80 µg/mL (≈ 216 µM)
MIC [12]: > 80 µg/mL
MIC (Bord.bronchiseptica BO8): > 80 µg/mL
MIC (S.dublin S7): > 80 µg/mL
MIC (S.typhimurium S18): > 80 µg/mL
MIC (Strep.uberis SPU1): 2.5 µg/mL (≈ 6.75 µM)
MIC (Staph.aureus Oxford [13]): 0.625 µg/mL (≈ 1.69 µM)
MIC (Strep.dysgalactiae SPD1): 20 µg/mL (≈ 54 µM)
MIC (Past.haemolytica PA5): 10 µg/mL (≈ 27 µM)
MIC [14]: > 80 µg/mL
MIC [15]: > 80 µg/mL
MIC (Past.multocida PA2): 0.625 µg/mL (≈ 1.69 µM)
MIC (Past.multocida PA1): 2.5 µg/mL (≈ 6.75 µM)
MIC (E.coli NCTC 10418 [16]): > 80 µg/mL
MIC [17]: 0.625 µg/mL (≈ 1.69 µM)
MIC (Strep.faecalis I): > 100 µg/mL
MIC ([6]; Pasteurella multocida 1633, nutrient agar, 5% "chocolated" horse blood, read-out: MIC): 10 µg/mL (≈ 27 µM)
MIC (Ps. aeruginosa 10662): > 100 µg/mL
MIC (Strep.pyogenes A 64/848): 50 µg/mL (≈ 135 µM)
MIC [18]: > 10 µg/mL
MIC (M.hyosynoviae ATCC 25591): 2.5 µg/mL (≈ 6.75 µM)
MIC [19]: 5 µg/mL (≈ 13.5 µM)
MIC (M.hyorhinis ATCC 23234): 5 µg/mL (≈ 13.5 µM)
MIC (M.suipneumoniae Str.11): 2.5 µg/mL (≈ 6.75 µM)
MIC (M.dispar NCTC 10125 [20]): 1 µg/mL (≈ 2.7 µM)
MIC (M.bovis NCTC 10131): 0.1 µg/mL (≈ 0.27 µM)
MIC [8]: 1 µg/mL (≈ 2.7 µM)
MIC (Staph.aureus Oxford [9]): 5 µg/mL (≈ 13.5 µM)
MIC (K. aerogenes A): > 100 µg/mL
MIC (Strep.pyogenes C 2761): 100 µg/mL (≈ 270 µM)

C/C(=C\C(=O)O)CC1OCC(CC2OC2C(C)C(C)O)C(O)C1O (stereo not drawn) [monic acid A]
anti-mycoplasmal activity (mycoplasma organisms): does not appear to have antibacterial or anti-mycoplasmal activity
antibacterial activity [21]: does not appear to have antibacterial or anti-mycoplasmal activity
